Columns and labels:
[1] = molecular target: Eurofins Express Diversity Kinase Profile Panel (45 targets); experiment: Eurofins Express Diversity Kinase Profile Panel; type: biochemical
Protocol: (§1) Using Compound 9, the activity of cell surface CD39 was assessed using K562 cells expressing human CD39 and Kinase-Glo. Activity of recombinant human ENTPD2 and ENTPD3 was assessed using a malachite green assay. […] Compound 9 was screened in the Eurofins Safety Screen Panel and the Eurofins Express Diversity Kinase Profile Panel. In the Safety Panel, 1/87 targets were inhibited at >50% at 10 μM of Compound 9. The PDE3 enzyme was inhibited at 59%.

mouse plasma CD73 = mouse plasma CD73 (Mus musculus (Mouse), UniProt Q61503); experiment: Oral dosing pharmacodynamics: CD73 inhibition in plasma of dosed mice; type: in vivo; details: single oral dose 50 mg/kg, plasma 2 hours post dose
Protocol: Single dose Compound 9 (50 mg/kg) was administered orally to mice and plasma was collected at indicated time points. Compound 9 levels were measured by LC/MS. Plasma was harvested from mice 2 hours post dose and spiked with ^15N5-AMP and a TNAP inhibitor. ^15N5-ADO levels were measured by LC/MS.

[2] = system: Eurofins Safety Screen Panel (87 targets); experiment: Eurofins Safety Screen Panel; details: 10 μM
Protocol: as §1

human plasma CD73 = human plasma CD73 (Homo sapiens (Human), UniProt P21589); experiment: Inhibition of CD73 in human plasma, LC/MS conversion of 15N5-AMP into 15N5-ADO; type: biochemical
Protocol: The potency of Compound 9 was evaluated against recombinant CD73 and CD73-expressing SK-MEL-28 cells using a malachite green assay. Inhibition of CD73 in plasma was measured using LC/MS to assess conversion of ^15N5-AMP into ^15N5-ADO. FIG. 4A indicates the nanomolar inhibition of CD73 cells from both human and mouse sources. […] Inhibition of CD73 in plasma was measured using LC/MS to assess conversion of ^15N5-AMP into ^15N5-ADO.

Chain of human plasma CD73 (P21589 27-574): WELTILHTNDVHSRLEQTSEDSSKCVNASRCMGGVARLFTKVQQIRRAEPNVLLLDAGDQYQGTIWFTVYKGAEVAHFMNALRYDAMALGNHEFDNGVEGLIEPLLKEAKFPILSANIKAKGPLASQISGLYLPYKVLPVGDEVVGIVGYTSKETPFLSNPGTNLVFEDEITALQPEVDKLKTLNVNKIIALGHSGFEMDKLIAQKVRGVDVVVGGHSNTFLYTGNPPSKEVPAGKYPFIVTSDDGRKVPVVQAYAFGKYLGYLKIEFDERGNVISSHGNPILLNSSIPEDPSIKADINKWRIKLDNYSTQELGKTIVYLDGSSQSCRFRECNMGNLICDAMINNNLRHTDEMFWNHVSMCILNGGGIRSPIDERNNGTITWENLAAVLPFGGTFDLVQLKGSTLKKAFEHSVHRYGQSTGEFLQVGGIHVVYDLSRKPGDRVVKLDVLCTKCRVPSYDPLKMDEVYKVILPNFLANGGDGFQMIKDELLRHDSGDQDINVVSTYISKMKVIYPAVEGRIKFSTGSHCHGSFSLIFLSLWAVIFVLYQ
Chain of mouse plasma CD73 (Q61503 29-576): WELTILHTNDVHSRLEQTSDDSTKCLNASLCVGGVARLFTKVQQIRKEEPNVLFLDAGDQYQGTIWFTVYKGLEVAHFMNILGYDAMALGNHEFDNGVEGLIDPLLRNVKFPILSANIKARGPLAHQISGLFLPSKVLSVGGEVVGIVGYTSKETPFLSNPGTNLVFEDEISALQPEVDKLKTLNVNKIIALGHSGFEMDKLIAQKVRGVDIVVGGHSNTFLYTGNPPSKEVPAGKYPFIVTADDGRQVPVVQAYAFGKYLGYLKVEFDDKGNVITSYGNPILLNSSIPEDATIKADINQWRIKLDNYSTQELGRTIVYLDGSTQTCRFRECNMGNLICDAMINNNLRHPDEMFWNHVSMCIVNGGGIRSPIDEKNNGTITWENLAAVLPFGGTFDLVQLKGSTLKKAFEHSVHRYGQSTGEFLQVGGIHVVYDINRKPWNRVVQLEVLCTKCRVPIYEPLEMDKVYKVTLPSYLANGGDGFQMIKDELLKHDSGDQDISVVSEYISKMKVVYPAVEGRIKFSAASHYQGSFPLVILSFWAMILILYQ

In the case of `C#C[C@@]1(O)[C@@H](COC(Cc2ccc(N3CCCNC3=O)cc2)(C(=O)O)C(=O)O)O[C@@H](n2cnc3c(N)nc(Cl)nc32)[C@@H]1O` [Compound 9, 2-(((2R,3S,4R,5R)-5-(6-amino-2-chloro-9H-purin-9-yl)-3-ethynyl-3,4-dihydroxytetrahydrofuran-2-yl)methoxy)-2-(4-(2-oxotetrahydropyrimidin-1 (2H)-yl)benzyl)malonic acid], the “Kinase Panel targets inhibited at >50%” value [1] is reported as “none of the 45 targets”, the inhibition at 50 mg/kg (mouse plasma CD73) is reported as 92% and the “Safety Panel targets inhibited at >50%” value [2] is reported as 1/87. The IC50 (human plasma CD73) was 0.38 nM.
